Where two headings read alike, the source gives them in different places. Each block holds one compound with its values, some of them ahead of it. Numbered stars: 1 amine (or outer) side, 2 acyl side, 3 side chain; on linkers, the order of the positions; unused ones are H or OH. Bridge positions count the residues as written; N and C are the ends. Square brackets hold non-standard residues; d marks the D form. Peptide text beside a SMILES is read from it. * marks the point of attachment. C20 diacid = O=C(O)CCCCCCCCCCCCCCCCCCC(=O)*; Pro(4R-NH2) = N[C@H]1CN[C@H](C(=O)O)C1; γGlu = O=C(O)[C@H](CCC(=O)[*:2])N[*:1]; NMeI = CC[C@H](C)[C@H](NC)C(=O)O; Aze = O=C(O)[C@@H]1CCN1; Sar = CNCC(=O)O
Tests used:
[1] = biological target: T1, human calcitonin receptor (hCTR2) (Homo sapiens, UniProt P30988); assay: hCTR2 assay: induction of cAMP (AlphaScreen cAMP Assay kit) in COS7 cells expressing hCTR2; assay type: cell-based
T1 construct: expressed in transfected cells
T1 sequence (P30988 25-474): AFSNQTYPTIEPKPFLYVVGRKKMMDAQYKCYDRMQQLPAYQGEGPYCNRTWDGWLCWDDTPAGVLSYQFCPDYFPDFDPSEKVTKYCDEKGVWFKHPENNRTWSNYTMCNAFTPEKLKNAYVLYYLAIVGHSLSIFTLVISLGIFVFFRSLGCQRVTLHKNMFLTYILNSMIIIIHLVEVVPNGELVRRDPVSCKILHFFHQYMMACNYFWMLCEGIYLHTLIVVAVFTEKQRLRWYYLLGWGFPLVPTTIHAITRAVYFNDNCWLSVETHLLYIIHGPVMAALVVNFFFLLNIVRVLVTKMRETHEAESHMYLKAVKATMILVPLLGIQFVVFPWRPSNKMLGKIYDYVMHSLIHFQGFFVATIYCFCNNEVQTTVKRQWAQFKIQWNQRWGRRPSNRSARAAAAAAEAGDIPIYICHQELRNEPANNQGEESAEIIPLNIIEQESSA
Method in brief: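 Cells were seeded one day ahead, washed, then exposed to rising peptide concentrations for 15 min at 37° C in the presence of 100 µM IBMX. After lysis for 10 min at room temperature, cAMP was quantified by AlphaScreen and EC50 values derived by 4PL fitting.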

Sprague Dawley (SD) rats = assay: Acute food intake and body weight in normal Sprague Dawley rats; assay type: in vivo; settings: vehicle-corrected, dose 30 nmol/kg sc, once; for Body weight loss (%) after 96 hours: mean ± SEM, n = 8
Method in brief: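 Normal male-unspecified SD rats, n = 8 per group, given a single s.c. peptide dose of 30 nmol/kg just before dark phase, with vehicle and positive control groups. Food intake recorded at 0, 4, 7, 10, 24, 48, 72 and 96 h; body weight daily; means ± SEM.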

[2] = cAMP induction in COS7 cells expressing hCTR2, average of a minimum of 3 determinations, read-out: hCTR2 EC50

SMILES: CC[C@H](C)[C@@H](C(=O)N[C@@H](CC(C)C)C(=O)N[C@@H](CO)C(=O)N[C@@H](CO)C(=O)N[C@H](C(=O)N[C@@H](CC(N)=O)C(=O)N[C@H](C(=O)NCC(=O)N[C@@H](CO)C(=O)N[C@@H](CC(N)=O)C(=O)N[C@H](C(=O)N1CC[C@H]1C(N)=O)[C@@H](C)O)C(C)C)[C@@H](C)O)N(C)C(=O)[C@H](C)NC(=O)CN(C)C(=O)[C@H](Cc1ccccc1)NC(=O)[C@H](CC(N)=O)NC(=O)[C@H](CC(N)=O)NC(=O)[C@H](CO)NC(=O)[C@H](CO)NC(=O)[C@H](CCCNC(=N)N)NC(=O)[C@H](Cc1c[nH]cn1)NC(=O)[C@H](CC(C)C)NC(=O)[C@H](Cc1ccccc1)NC(=O)[C@H](CCC(=O)O)NC(=O)[C@H](C)NC(=O)[C@H](CC(C)C)NC(=O)[C@H](CCCNC(=N)N)NC(=O)[C@H](CCC(N)=O)NC(=O)[C@@H](NC(=O)[C@H](C)NC(=O)[C@@H]1CSSC[C@H](NC(=O)[C@H](CCCNC(=N)N)NC(=O)CC[C@H](NC(=O)CCCCCCCCCCCCCCCCCCC(=O)O)C(=O)O)C(=O)N[C@@H](CC(N)=O)C(=O)N[C@@H]([C@@H](C)O)C(=O)N[C@@H](C)C(=O)N[C@@H]([C@@H](C)O)C(=O)N1)[C@@H](C)O [Compound 107, [19CD]-isoGlu-RC()NTATC()ATQRLAEFLHRSSNNF-Gly(Me)-A-Ile(Me)-LSSTNVGSNT-Aze-NH2] ({C20 diacid-γGlu}-RCNTATCATQRLAEFLHRSSNNF[Sar]A[NMeI]LSSTNVGSNT[Aze]-NH2; disulfide 2-7)
EC50 [1]: 0.18 nM | Food intake inhibition (%) after 48 hours (Sprague Dawley (SD) rats): 83% | Body weight loss (%) after 96 hours (Sprague Dawley (SD) rats): 6 ± 1.5%

SMILES: CC[C@H](C)[C@@H](C(=O)N[C@@H](CC(C)C)C(=O)N[C@@H](CO)C(=O)N[C@@H](CO)C(=O)N[C@H](C(=O)N[C@@H](CC(N)=O)C(=O)N[C@H](C(=O)NCC(=O)N[C@@H](CO)C(=O)N[C@@H](CC(N)=O)C(=O)N[C@H](C(=O)N1C[C@H](N)C[C@H]1C(N)=O)[C@@H](C)O)C(C)C)[C@@H](C)O)N(C)C(=O)[C@H](C)NC(=O)CN(C)C(=O)[C@H](Cc1ccccc1)NC(=O)[C@H](CC(N)=O)NC(=O)[C@H](CC(N)=O)NC(=O)[C@H](CO)NC(=O)[C@H](CO)NC(=O)[C@H](CCCNC(=N)N)NC(=O)[C@H](Cc1c[nH]cn1)NC(=O)[C@H](CC(C)C)NC(=O)[C@H](Cc1ccccc1)NC(=O)[C@H](CCC(=O)O)NC(=O)[C@H](C)NC(=O)[C@H](CC(C)C)NC(=O)[C@H](CCCNC(=N)N)NC(=O)[C@H](CCC(N)=O)NC(=O)[C@@H](NC(=O)[C@H](C)NC(=O)[C@@H]1CSSC[C@H](NC(=O)[C@H](CCCNC(=N)N)NC(=O)CC[C@H](NC(=O)CCCCCCCCCCCCCCCCCCC(=O)O)C(=O)O)C(=O)N[C@@H](CC(N)=O)C(=O)N[C@@H]([C@@H](C)O)C(=O)N[C@@H](C)C(=O)N[C@@H]([C@@H](C)O)C(=O)N1)[C@@H](C)O [Compound 110, [19CD]-isoGlu-RC()NTATC()ATQRLAEFLHRSSNNF-Gly(Me)-A-Ile(Me)-LSSTNVGSNT-Apr-NH2] ({C20 diacid-γGlu}-RCNTATCATQRLAEFLHRSSNNF[Sar]A[NMeI]LSSTNVGSNT[Pro(4R-NH2)]-NH2; disulfide 2-7)
EC50 [1]: 0.16 nM | Food intake inhibition (%) after 48 hours (Sprague Dawley (SD) rats): 98% | Body weight loss (%) after 96 hours (Sprague Dawley (SD) rats): 11 ± 1.1%

EC50 [1, 2]: 0.062 nM
SMILES: CC[C@H](C)[C@@H](C(=O)N[C@@H](CC(C)C)C(=O)N[C@@H](CO)C(=O)N[C@@H](CO)C(=O)N[C@H](C(=O)N[C@@H](CCC(=O)O)C(=O)N[C@H](C(=O)NCC(=O)N[C@@H](CO)C(=O)N[C@@H](CCC(=O)O)C(=O)N[C@H](C(=O)N1CCC[C@H]1C(N)=O)[C@@H](C)O)C(C)C)[C@@H](C)O)N(C)C(=O)[C@H](C)NC(=O)CN(C)C(=O)[C@H](Cc1ccccc1)NC(=O)[C@H](CO)NC(=O)[C@H](CO)NC(=O)[C@H](CO)NC(=O)[C@H](CO)NC(=O)[C@H](CCCNC(=N)N)NC(=O)[C@H](Cc1c[nH]cn1)NC(=O)[C@H](CC(C)C)NC(=O)[C@H](Cc1ccccc1)NC(=O)[C@H](CCC(=O)O)NC(=O)[C@H](C)NC(=O)[C@H](CC(C)C)NC(=O)[C@H](CCCNC(=N)N)NC(=O)[C@H](C)NC(=O)[C@@H](NC(=O)[C@H](C)NC(=O)[C@@H]1CSSC[C@H](NC(=O)[C@H](CCCNC(=N)N)NC(=O)CC[C@H](NC(=O)CCCCCCCCCCCCCCCCCCC(=O)O)C(=O)O)C(=O)N[C@@H](CC(N)=O)C(=O)N[C@@H]([C@@H](C)O)C(=O)N[C@@H](C)C(=O)N[C@@H]([C@@H](C)O)C(=O)N1)[C@@H](C)O [Compound 118, [19CD]-isoGlu-RC()NTATC()ATARLAEFLHRSSSSF-Gly(Me)-A-Ile(Me)-LSSTEVGSETP-NH2] ({C20 diacid-γGlu}-RCNTATCATARLAEFLHRSSSSF[Sar]A[NMeI]LSSTEVGSETP-NH2; disulfide 2-7)
Food intake inhibition (%) after 48 hours (Sprague Dawley (SD) rats): 93% | Body weight loss (%) after 96 hours (Sprague Dawley (SD) rats): 13 ± 1.8%

SMILES: CC[C@H](C)[C@@H](C(=O)N[C@@H](CC(C)C)C(=O)N[C@@H](CO)C(=O)N[C@@H](CO)C(=O)N[C@H](C(=O)N[C@@H](CCC(=O)O)C(=O)N[C@H](C(=O)NCC(=O)N[C@@H](CO)C(=O)N[C@@H](CCC(=O)O)C(=O)N[C@H](C(=O)N1CCC[C@H]1C(N)=O)[C@@H](C)O)C(C)C)[C@@H](C)O)N(C)C(=O)[C@H](C)NC(=O)CN(C)C(=O)[C@H](Cc1ccccc1)NC(=O)[C@H](CO)NC(=O)[C@H](CO)NC(=O)[C@H](CO)NC(=O)[C@H](CO)NC(=O)[C@H](CCCNC(=N)N)NC(=O)[C@H](Cc1c[nH]cn1)NC(=O)[C@H](CC(C)C)NC(=O)[C@H](Cc1ccccc1)NC(=O)[C@H](CCC(=O)O)NC(=O)[C@H](C)NC(=O)[C@H](CC(C)C)NC(=O)[C@H](CCCNC(=N)N)NC(=O)[C@H](CC(=O)O)NC(=O)[C@@H](NC(=O)[C@H](C)NC(=O)[C@@H]1CSSC[C@H](NC(=O)[C@H](CCCNC(=N)N)NC(=O)CC[C@H](NC(=O)CCCCCCCCCCCCCCCCCCC(=O)O)C(=O)O)C(=O)N[C@@H](CC(N)=O)C(=O)N[C@@H]([C@@H](C)O)C(=O)N[C@@H](C)C(=O)N[C@@H]([C@@H](C)O)C(=O)N1)[C@@H](C)O [Compound 120, [19CD]-isoGlu-RC()NTATC()ATDRLAEFLHRSSSSF-Gly(Me)-A-Ile(Me)-LSSTEVGSETP-NH2] ({C20 diacid-γGlu}-RCNTATCATDRLAEFLHRSSSSF[Sar]A[NMeI]LSSTEVGSETP-NH2; disulfide 2-7)
EC50 [1, 2]: 0.043 nM | Body weight loss (%) after 96 hours (Sprague Dawley (SD) rats): 12 ± 1.8%

EC50 [1, 2]: 0.22 nM
SMILES: CC[C@H](C)[C@@H](C(=O)N[C@@H](CC(C)C)C(=O)N[C@@H](CO)C(=O)N[C@@H](CO)C(=O)N[C@H](C(=O)N[C@@H](CCC(=O)O)C(=O)N[C@H](C(=O)NCC(=O)N[C@@H](CO)C(=O)N[C@@H](CCC(=O)O)C(=O)N[C@H](C(=O)N1CCC[C@H]1C(N)=O)[C@@H](C)O)C(C)C)[C@@H](C)O)N(C)C(=O)[C@H](C)NC(=O)CN(C)C(=O)[C@H](Cc1ccccc1)NC(=O)[C@H](CO)NC(=O)[C@H](CO)NC(=O)[C@H](CO)NC(=O)[C@H](CO)NC(=O)[C@H](CCCNC(=N)N)NC(=O)[C@H](Cc1c[nH]cn1)NC(=O)[C@H](CC(C)C)NC(=O)[C@H](Cc1ccccc1)NC(=O)[C@H](CCC(=O)O)NC(=O)[C@H](C)NC(=O)[C@H](CC(C)C)NC(=O)[C@H](CCCNC(=N)N)NC(=O)[C@H](CCC(=O)O)NC(=O)[C@@H](NC(=O)[C@H](C)NC(=O)[C@@H]1CSSC[C@H](NC(=O)[C@H](CCCNC(=N)N)NC(=O)CC[C@H](NC(=O)CCCCCCCCCCCCCCCCCCC(=O)O)C(=O)O)C(=O)N[C@@H](CCC(=O)O)C(=O)N[C@@H]([C@@H](C)O)C(=O)N[C@@H](C)C(=O)N[C@@H]([C@@H](C)O)C(=O)N1)[C@@H](C)O [Compound 134, [19CD]-isoGlu-RC()ETATC()ATERLAEFLHRSSSSF-Gly(Me)-A-Ile(Me)-LSSTEVGSETP-NH2] ({C20 diacid-γGlu}-RCETATCATERLAEFLHRSSSSF[Sar]A[NMeI]LSSTEVGSETP-NH2; disulfide 2-7)
Food intake inhibition (%) after 48 hours (Sprague Dawley (SD) rats): 27% | Body weight loss (%) after 96 hours (Sprague Dawley (SD) rats): 4 ± 3.1 %

EC50 [1, 2]: 0.084 nM
SMILES: CC[C@H](C)[C@@H](C(=O)N[C@@H](CC(C)C)C(=O)N[C@@H](CO)C(=O)N[C@@H](CO)C(=O)N[C@H](C(=O)N[C@@H](CCC(=O)O)C(=O)N[C@H](C(=O)NCC(=O)N[C@@H](CO)C(=O)N[C@@H](CCC(=O)O)C(=O)N[C@H](C(=O)N1CCC[C@H]1C(N)=O)[C@@H](C)O)C(C)C)[C@@H](C)O)N(C)C(=O)[C@H](C)NC(=O)CN(C)C(=O)[C@H](Cc1ccccc1)NC(=O)[C@H](CO)NC(=O)[C@H](CO)NC(=O)[C@H](CCCNC(=N)N)NC(=O)[C@H](Cc1c[nH]cn1)NC(=O)[C@H](CC(C)C)NC(=O)[C@H](Cc1ccccc1)NC(=O)[C@H](CCC(=O)O)NC(=O)[C@H](C)NC(=O)[C@H](CC(C)C)NC(=O)[C@H](CCCNC(=N)N)NC(=O)[C@H](CCC(=O)O)NC(=O)[C@@H](NC(=O)[C@H](C)NC(=O)[C@@H]1CSSC[C@H](NC(=O)[C@H](Cc2c[nH]c3ccccc23)NC(=O)CC[C@H](NC(=O)CCCCCCCCCCCCCCCCCCC(=O)O)C(=O)O)C(=O)NCC(=O)N[C@@H]([C@@H](C)O)C(=O)N[C@@H](C)C(=O)N[C@@H]([C@@H](C)O)C(=O)N1)[C@@H](C)O [Compound 161, [19CD]-isoGlu-WC()GTATC()ATERLAEFLHRSSF-Gly(Me)-A-Ile(Me)-LSSTEVGSETP-NH2] ({C20 diacid-γGlu}-WCGTATCATERLAEFLHRSSF[Sar]A[NMeI]LSSTEVGSETP-NH2; disulfide 2-7)
Food intake inhibition (%) after 48 hours (Sprague Dawley (SD) rats): 99% | Body weight loss (%) after 96 hours (Sprague Dawley (SD) rats): 10 ± 2.7%
